# Experimental data reported in paper PMC9737664, “Human Milk Oligosaccharide 2′-Fucosyllactose Inhibits Ligand Binding to C-Type Lectin DC-SIGN but Not to Langerin” (International Journal of Molecular Sciences, 2022).
# Molecular target: T1, DC-SIGN (Homo sapiens, UniProt Q9NNX6)
# T1 construct: gene CD209; DC-SIGN-Fc: extracellular domain fused to the Fc portion of human IgG1
# T1 sequence (Q9NNX6 59-404 limits assumed): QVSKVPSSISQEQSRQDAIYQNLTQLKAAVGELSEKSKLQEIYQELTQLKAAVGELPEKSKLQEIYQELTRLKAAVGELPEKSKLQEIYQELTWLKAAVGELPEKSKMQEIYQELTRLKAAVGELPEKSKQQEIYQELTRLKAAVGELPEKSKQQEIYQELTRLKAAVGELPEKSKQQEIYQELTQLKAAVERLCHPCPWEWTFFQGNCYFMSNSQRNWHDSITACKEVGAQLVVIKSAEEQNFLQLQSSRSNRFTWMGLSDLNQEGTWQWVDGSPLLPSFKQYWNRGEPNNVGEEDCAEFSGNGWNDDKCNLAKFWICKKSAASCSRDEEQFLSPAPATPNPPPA
# Experiment: Solid-phase competition ELISA of DC-SIGN-Fc against PAA-fucose and PAA-Le^b; also Le^b bead competition on DC-SIGN expressing cells ([…])
# Format: binding
smiles,measurement,value
"C[C@@H]1O[C@@H](O[C@H]2[C@H](O[C@H]3[C@H](O)[C@@H](O)C(O)O[C@@H]3CO)O[C@H](CO)[C@H](O)[C@@H]2O)[C@@H](O)[C@H](O)[C@@H]1O (stereo partly shown) [2′-FL, 2′-Fucosyllactose]",Solid-phase competition ELISA of DC-SIGN-Fc against PAA-fucose and PAA-Le^b; als,~ 2 mM
